Source: article PMC11617253, “Gene expansion in the hawkmoth Manduca sexta drives evolution of food-associated odorant receptors” (iScience, 2024)

Columns and labels:
Assay in all cases: single sensillum recording, Drosophila empty neuron (ab3A)
Format in all cases: cell-based
MsexOR33 = biological target: T1, MsexOR33 (Manduca sexta, UniProt A0A0P1J430); settings: odor dilutions 10^-7 to 10^-2 v/v on filter paper, 500 ms pulse
T1 construct: gene OR-33; full-length CDS from antennal RNA, UAS transgene (pUASTattB) in D. melanogaster ab3A empty neuron (delta-halo; DmelOr22a-Gal4); partner is endogenous fly Orco; with Odorant receptor coreceptor (Drosophila melanogaster, endogenous to the ab3A neuron)
T1 sequence (A0A0P1J430 entry or part of it, one chain of several): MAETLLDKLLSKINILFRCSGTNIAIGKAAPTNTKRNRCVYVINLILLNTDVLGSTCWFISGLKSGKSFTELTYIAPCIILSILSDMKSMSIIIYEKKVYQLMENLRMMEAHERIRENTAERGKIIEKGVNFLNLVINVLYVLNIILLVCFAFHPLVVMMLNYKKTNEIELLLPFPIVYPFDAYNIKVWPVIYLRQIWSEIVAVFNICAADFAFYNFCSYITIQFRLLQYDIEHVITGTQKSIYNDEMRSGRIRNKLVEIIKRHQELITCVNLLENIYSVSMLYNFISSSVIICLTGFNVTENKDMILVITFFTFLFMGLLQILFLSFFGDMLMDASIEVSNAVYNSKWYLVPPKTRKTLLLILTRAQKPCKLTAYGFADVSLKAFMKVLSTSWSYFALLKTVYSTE

MsexOR8 = biological target: T2, MsexOR8 (Manduca sexta, UniProt A0A0P1IW06); settings: odor dilutions 10^-7 to 10^-2 v/v on filter paper, 500 ms pulse
T2 construct: gene OR-8; full-length CDS from antennal RNA, UAS transgene (pUASTattB) in D. melanogaster ab3A empty neuron (delta-halo; DmelOr22a-Gal4); partner is endogenous fly Orco; with Odorant receptor coreceptor (Drosophila melanogaster, endogenous to the ab3A neuron)
T2 sequence (A0A0P1IW06 1-407): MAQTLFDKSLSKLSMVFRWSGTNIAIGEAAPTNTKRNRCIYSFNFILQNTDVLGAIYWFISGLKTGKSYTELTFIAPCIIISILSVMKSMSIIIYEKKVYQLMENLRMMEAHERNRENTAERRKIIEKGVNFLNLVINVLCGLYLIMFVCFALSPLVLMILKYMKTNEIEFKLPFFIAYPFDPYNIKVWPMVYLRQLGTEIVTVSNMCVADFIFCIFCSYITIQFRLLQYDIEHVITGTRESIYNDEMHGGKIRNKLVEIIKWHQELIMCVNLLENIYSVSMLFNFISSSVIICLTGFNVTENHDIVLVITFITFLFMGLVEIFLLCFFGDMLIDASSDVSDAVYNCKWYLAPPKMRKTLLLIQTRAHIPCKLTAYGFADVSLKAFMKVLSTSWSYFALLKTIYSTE
T2 sequence (Q9VNB5 1-486 partner): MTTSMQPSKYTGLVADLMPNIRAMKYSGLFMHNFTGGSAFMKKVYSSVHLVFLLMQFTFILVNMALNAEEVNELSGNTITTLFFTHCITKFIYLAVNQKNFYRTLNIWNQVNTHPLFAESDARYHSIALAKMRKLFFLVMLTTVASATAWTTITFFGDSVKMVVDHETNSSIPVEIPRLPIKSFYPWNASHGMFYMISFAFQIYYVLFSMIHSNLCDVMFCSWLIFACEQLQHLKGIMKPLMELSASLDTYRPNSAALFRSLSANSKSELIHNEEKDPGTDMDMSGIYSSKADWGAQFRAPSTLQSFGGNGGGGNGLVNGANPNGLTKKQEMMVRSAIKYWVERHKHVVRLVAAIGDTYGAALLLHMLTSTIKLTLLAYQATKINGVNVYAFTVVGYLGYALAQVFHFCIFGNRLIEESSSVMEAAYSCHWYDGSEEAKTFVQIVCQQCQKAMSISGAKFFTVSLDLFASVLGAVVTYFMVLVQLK

MsexOR36 = biological target: T3, MsexOR36 (Manduca sexta, UniProt A0A0P1IVT0); settings: odor dilution 10^-2 v/v on filter paper, 500 ms pulse
T3 construct: gene OR-36; full-length CDS (407 aa) from antennal RNA, UAS transgene (pUASTattB) in D. melanogaster ab3A empty neuron (delta-halo; DmelOr22a-Gal4); partner is endogenous fly Orco; with Odorant receptor coreceptor (Drosophila melanogaster, endogenous to the ab3A neuron)
T3 sequence (A0A0P1IVT0 1-407): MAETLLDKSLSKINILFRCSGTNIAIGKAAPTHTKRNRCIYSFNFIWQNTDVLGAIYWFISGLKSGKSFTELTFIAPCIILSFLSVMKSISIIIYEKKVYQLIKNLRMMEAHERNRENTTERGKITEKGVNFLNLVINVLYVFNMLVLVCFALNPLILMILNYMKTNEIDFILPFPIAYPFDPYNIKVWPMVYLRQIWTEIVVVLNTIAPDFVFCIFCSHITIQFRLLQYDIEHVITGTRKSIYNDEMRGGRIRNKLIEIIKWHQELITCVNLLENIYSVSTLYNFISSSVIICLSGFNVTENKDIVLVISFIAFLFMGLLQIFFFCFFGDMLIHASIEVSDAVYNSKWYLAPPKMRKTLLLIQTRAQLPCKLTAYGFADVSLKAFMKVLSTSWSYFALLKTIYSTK
T3 sequence (Q9VNB5 1-486 partner): T2 sequence (Q9VNB5 1-486 partner)

With `CCCCCCCCC=O` [nonanal] the “single sensillum recording, Drosophila empty neuron (ab3A)” value (from here on “single sensillum recording”) (MsexOR33) was “each responding to only one odorant: MsexOR33 (nonanal) and MsexOR8 (propyl valerate)”.

In the case of `CCCCC(=O)OCCC` [propyl valerate], the “single sensillum recording” value (MsexOR8) is reported as “each responding to only one odorant: MsexOR33 (nonanal) and MsexOR8 (propyl valerate)”.

`C=CC(C)=CCC=C(C)C` [β-ocimene] was tested, and the “single sensillum recording” value (MsexOR36) was “β-ocimene, which was detected only by MsexOR36”.
